# Patent US11707440B2 (priority 2017, dated 2023)
# Read-outs that look alike come from different tables or passages of the source.
# Key:
# [1] = system: subjects with MDD at imminent risk for suicide
# [2] = system: subjects with MDD at imminent risk for suicide; assay: Sustained response, response and remission based on MADRS, […]2001; type: in vivo, human; conditions: at least 50 percent reduction from baseline with onset on Day 1 maintained through Day 25; ITT analysis set
# Source text: • a. Changes from baseline to Day 2 and Day 25 for the MADRS total score • b. Changes from baseline to Day 1 4-hours postdose, Day 2 and Day 25 for the MADRS Suicide Item • c. Changes from baseline to Day 1 4-hours postdose, Day 2, and Day 25 for the clinical global judgment of suicide risk from the Suicide Ideation and Behavior Assessment Tool (SIBAT) • d. Sustained response (Onset of Clinical Response) defined as at least 50% reduction from baseline in MADRS total score with onset on Day 1 that is maintained through the end of the double-blind phase (Day 25) • e. Changes from baseline to Day 1 4-hours postdose, Day 2, and Day 25 for the Beck Scale for Suicidal Ideation (BSS) • f. Changes from baseline to Day 1 4-hours postdose and Day 25 for the Beck Hopelessness Scale
# Sustained response is defined as at least 50% reduction from baseline in MADRS total score with onset on Day 1: 4 hours postdose that is maintained through the end of the double-blind phase (Day 25). Four subjects in the esketamine 84 mg group and 2 subjects in the placebo group had sustained response throughout the double-blind phase.
# [3] = system: subjects with MDD at imminent risk for suicide; assay: Beck Scale for Suicidal Ideation (BSS), […]2001; type: in vivo, human; conditions: for BSS total score change, Diff. of LS Means (SE) minus placebo: ANCOVA LOCF
# Experimental: The BSS is a 21-item self-reported instrument to detect and measure the severity of suicidal ideation in adults and adolescents aged 17 years and older. The BSS total score represents the severity of suicide ideation, and it is calculated by summing the ratings of the first 19 items; the total score ranges from 0 to 38, with a higher score representing greater suicide ideation. Increasing scores reflect increases in suicidal risk.
# [4] = system: subjects with MDD at imminent risk for suicide; assay: MADRS total score, study […]2001; type: in vivo, human; conditions: ITT analysis set; for MADRS total score change, Diff. of LS Means (SE) minus placebo: ANCOVA LOCF
# Source text: Primary efficacy variable/Primary Time point: Change from baseline (Day 1, predose) to Day 1, 4-hours postdose in MADRS total score. The MADRS consists of 10 items that cover all of the core depressive symptoms, with each item scoring from 0 (item is not present or is normal) to 6 (severe or continuous presence of the symptom). A higher score represents a more severe condition.
# The primary efficacy endpoint is the change in MADRS total score from baseline to Day 1: 4-hours postdose. MADRS total scores range from 0 to 60. […] As this is a phase 2a proof-of-concept study, statistical significance is based on a two-sided alpha level of 0.20. All p-values presented in this document are two-sided.
# [5] = adverse events, follow up phase, safety (FU) analysis set
# [6] = double-blind phase, safety analysis set
# [7] = serious adverse events, follow up phase, safety (FU) analysis set
# [8] = treatment-emergent serious adverse events, double-blind phase, safety analysis set
# [9] = Baseline(DB), predose Day 1, ITT analysis set
# [10] = Day 1(DB): 4H, LOCF, ITT analysis set
# [11] = Day 2(DB), LOCF, ITT analysis set
# [12] = End Point(DB), LOCF, ITT analysis set
smiles,measurement,setting,value
CN[C@]1(c2ccccc2Cl)CCCCC1=O [Esketamine 84 mg],Flank pain,[1]; [5],1 (3.7%) no. subjects (%)
same,Folliculitis,[1]; [5],0 no. subjects (%)
same,Gastrointestinal disorders,[1]; [5],6 (22.2%) no. subjects (%)
same,Headache,[1]; [5],2 (7.4%) no. subjects (%)
same,Immune system disorders,[1]; [5],0 no. subjects (%)
same,Infections and infestations,[1]; [5],3 (11.1%) no. subjects (%)
same,Influenza,[1]; [5],0 no. subjects (%)
same,"Injury, poisoning and procedural complications",[1]; [5],2 (7.4%) no. subjects (%)
same,Insomnia,[1]; [5],3 (11.1%) no. subjects (%)
same,Intentional self-injury,[1]; [5],1 (3.7%) no. subjects (%)
same,Loss of consciousness,[1]; [5],1 (3.7%) no. subjects (%)
same,Meniere's disease,[1]; [5],0 no. subjects (%)
same,Metabolism and nutrition disorders,[1]; [5],0 no. subjects (%)
same,Migraine,[1]; [5],1 (3.7%) no. subjects (%)
same,Musculoskeletal and connective tissue disorders,[1]; [5],2 (7.4%) no. subjects (%)
same,Musculoskeletal chest pain,[1]; [5],1 (3.7%) no. subjects (%)
same,Musculoskeletal pain,[1]; [5],1 (3.7%) no. subjects (%)
same,Nasal congestion,[1]; [5],1 (3.7%) no. subjects (%)
same,Nasopharyngitis,[1]; [5],1 (3.7%) no. subjects (%)
same,Nausea,[1]; [5],0 no. subjects (%)
same,Neck pain,[1]; [5],1 (3.7%) no. subjects (%)
same,Nervous system disorders,[1]; [5],6 (22.2%) no. subjects (%)
same,Night sweats,[1]; [5],1 (3.7%) no. subjects (%)
same,Panic reaction,[1]; [5],0 no. subjects (%)
same,Pelvic pain,[1]; [5],1 (3.7%) no. subjects (%)
same,Pharyngitis,[1]; [5],2 (7.4%) no. subjects (%)
same,Polydipsia,[1]; [5],0 no. subjects (%)
same,Procedural pain,[1]; [5],0 no. subjects (%)
same,Psychiatric disorders,[1]; [5],5 (18.5%) no. subjects (%)
same,Rash,[1]; [5],0 no. subjects (%)
same,Renal and urinary disorders,[1]; [5],0 no. subjects (%)
same,Renal failure,[1]; [5],0 no. subjects (%)
same,Reproductive system and breast disorders,[1]; [5],1 (3.7%) no. subjects (%)
same,"Respiratory, thoracic and mediastinal disorders",[1]; [5],2 (7.4%) no. subjects (%)
same,Restlessness,[1]; [5],1 (3.7%) no. subjects (%)
same,Road traffic accident,[1]; [5],1 (3.7%) no. subjects (%)
same,Sedation,[1]; [5],1 (3.7%) no. subjects (%)
same,Self-injurious ideation,[1]; [5],0 no. subjects (%)
same,Sexual dysfunction,[1]; [5],0 no. subjects (%)
same,Skin and subcutaneous tissue disorders,[1]; [5],1 (3.7%) no. subjects (%)
same,Somnolence,[1]; [5],0 no. subjects (%)
same,Suicidal ideation,[1]; [5],1 (3.7%) no. subjects (%)
same,Suicide attempt,[1]; [5],0 no. subjects (%)
same,Tooth impacted,[1]; [5],0 no. subjects (%)
same,Toothache,[1]; [5],0 no. subjects (%)
same,Total no. subjects with adverse events,[1]; [5],13 (48.1%) no. subjects (%)
same,Tremor,[1]; [5],2 (7.4%) no. subjects (%)
same,Upper respiratory tract infection,[1]; [5],1 (3.7%) no. subjects (%)
same,Viral upper respiratory tract infection,[1]; [5],0 no. subjects (%)
same,Vomiting,[1]; [5],1 (3.7%) no. subjects (%)
same,Vulvovaginal mycotic infection,[1]; [5],1 (3.7%) no. subjects (%)
same,1 or more serious TEAE,[1]; [6],4 (11.4%) no. subjects (%)
same,TEAE (total no. subjects with TEAE),[1]; [6],33 (94.3%) no. subjects (%)
same,TEAE leading to death,[1]; [6],0 no. subjects (%)
same,TEAE leading to drug withdrawn,[1]; [6],5 (14.3%) no. subjects (%)
same,Possibly related TEAE,"[1]; double-blind phase, safety analysis set, relationship possible, probable, very likely",29 (82.9%) no. subjects (%)
same,Cellulitis,[1]; [7],0 no. subjects (%)
same,Infections and infestations,[1]; [7],0 no. subjects (%)
same,Psychiatric disorders,[1]; [7],1 (3.7%) no. subjects (%)
same,Suicidal ideation,[1]; [7],1 (3.7%) no. subjects (%)
same,Suicide attempt,[1]; [7],0 no. subjects (%)
same,Total no. subjects with a serious adverse event,[1]; [7],1 (3.7%) no. subjects (%)
same,Agitation,[1]; [8],1 (2.9%) no. subjects (%)
same,Depressive symptom,[1]; [8],1 (2.9%) no. subjects (%)
same,Psychiatric disorders,[1]; [8],4 (11.4%) no. subjects (%)
same,Suicidal ideation,[1]; [8],2 (5.7%) no. subjects (%)
same,Day 25 sustained response based on MADRS total score: No,[2],30 (88.2%) subjects (%)
same,Day 25 sustained response based on MADRS total score: Yes,[2],4 (118%) subjects (%)
same,"BSS total score, Mean (SD)",[3]; [9],24.0 (5.45)
same,"BSS total score, Median (Range)",[3]; [9],25.0 (8; 33)
same,"BSS total score change, Diff. of LS Means (SE) minus placebo",[3]; Day 1(DB): 4H,−2.3 (2.29)
same,"BSS total score change from baseline, Mean (SD)",[3]; [10],−10.2 (9.74)
same,"BSS total score change from baseline, Median (Range)",[3]; [10],−8.0 (−33; 8)
same,"BSS total score, Median (Range)",[3]; [10],16.5 (0; 31)
same,"BSS total score change, Diff. of LS Means (SE) minus placebo",[3]; Day 2(DB),−1.9 (2.30)
same,"BSS total score, Mean (SD)",[3]; [11],11.1 (10.12)
same,"BSS total score, Median (Range)",[3]; [11],13.0 (0; 34)
same,"BSS total score change, Diff. of LS Means (SE) minus placebo",[3]; End Point(DB),−1.7 (2.15)
same,"BSS total score change from baseline, Median (Range)",[3]; [12],−21.0 (−33; 8)
same,"BSS total score, Mean (SD)",[3]; [12],4.7 (9.03)
same,"BSS total score, Median (Range)",[3]; [12],0.0 (0; 34)
same,"MADRS total score, Mean (SD)","[4]; Baseline(DB), predose Day 1",38.5 (6.17)
same,"MADRS total score, Median (Range)","[4]; Baseline(DB), predose Day 1",38.0 (27; 49)
same,"MADRS total score change, Diff. of LS Means (SE) minus placebo",[4]; Day 1(DB): 4H,−5.3 (2.10)
same,"MADRS total score change from baseline, Mean (SD)","[4]; Day 1(DB): 4H, LOCF",−13.4 (9.03)
same,"MADRS total score change from baseline, Median (Range)","[4]; Day 1(DB): 4H, LOCF",−14.0 (−32; 1)
same,"MADRS total score, Median (Range)","[4]; Day 1(DB): 4H, LOCF",23.0 (7; 48)
same,"MADRS total score change, Diff. of LS Means (SE) minus placebo",[4]; Day 2(DB),−7.2 (2.85)
same,"MADRS total score change from baseline, Mean (SD)","[4]; Day 2(DB), LOCF",−19.3 (12.02)
same,"MADRS total score change from baseline, Median (Range)","[4]; Day 2(DB), LOCF",−19.0 (−41; 1)
same,"MADRS total score, Median (Range)","[4]; Day 2(DB), LOCF",18.0 (3; 42)
same,"MADRS total score change, Diff. of LS Means (SE) minus placebo",[4]; End Point(DB),−4.5 (3.14)
same,"MADRS total score change from baseline, Mean (SD)","[4]; End Point(DB), LOCF",−26.4 (14.52)
same,"MADRS total score change from baseline, Median (Range)","[4]; End Point(DB), LOCF",−25.0 (−46; 13)
same,"MADRS total score, Median (Range)","[4]; End Point(DB), LOCF",8.0 (0; 44)
